# Molecular target: T1, amyloglucosidase (AMG), EC 3.2.1.3 (Aspergillus niger, UniProt P69328)
# T1 construct: gene GLAA; commercial enzyme solution (Sigma A-3042), diluted with water
# Test: initial rates plus fit of glucose-time curves (HPLC, starch-iodine) to Michaelis-Menten model with product inhibition
# Format: biochemical
# Details: free enzyme; soluble starch as substrate; pH 4.5, 55 °C; competitive product inhibition (assumed model); read-out: Ki (mg mL^-1) (converted)
# T1 sequence (P69328 25-640): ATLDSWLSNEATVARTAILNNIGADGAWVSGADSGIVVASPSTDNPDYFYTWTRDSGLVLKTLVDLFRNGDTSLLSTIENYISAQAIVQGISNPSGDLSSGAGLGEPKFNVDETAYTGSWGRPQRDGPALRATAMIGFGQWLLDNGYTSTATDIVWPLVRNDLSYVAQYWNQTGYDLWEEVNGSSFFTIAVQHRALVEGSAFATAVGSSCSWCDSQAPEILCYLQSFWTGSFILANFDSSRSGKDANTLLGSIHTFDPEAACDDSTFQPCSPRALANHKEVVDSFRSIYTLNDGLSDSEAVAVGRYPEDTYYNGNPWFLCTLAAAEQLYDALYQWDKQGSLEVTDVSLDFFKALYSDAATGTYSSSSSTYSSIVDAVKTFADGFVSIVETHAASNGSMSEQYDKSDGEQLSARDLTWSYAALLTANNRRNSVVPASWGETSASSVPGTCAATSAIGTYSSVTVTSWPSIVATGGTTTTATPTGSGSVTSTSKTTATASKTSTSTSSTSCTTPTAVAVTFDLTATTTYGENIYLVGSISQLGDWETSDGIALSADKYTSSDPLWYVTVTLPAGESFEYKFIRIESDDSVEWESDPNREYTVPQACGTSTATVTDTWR
smiles,measurement,value
OC[C@H]1OC(O)[C@H](O)[C@@H](O)[C@@H]1O (stereo partly shown) [glucose],Ki,555 µM
